According to US11661437B2, “Steroid derivative regulators, method for preparing the same, and uses thereof” (priority 2018, dated 2023):

Legend:
ICR mice = assay: In vivo pharmacodynamic test in the forced swimming model in mice; details: for Mean (immobility, %) / Mean (immobility, s): 10 mpk p.o.; for Mean (immobility, %): floating time percentage = 100*floating time/240 s; for Mean (immobility, s): latter four minutes of 6 min swim
Method: The antidepressant effect of the compound was evaluated by the forced swimming model in mice.
Male ICR mice (25-35 g) were adapted in the test environment for 3 days before the forced swimming test.
According to the test design, the mice were randomly grouped on the day before the test according to body weight, with 12 mice in each group. Before the test, the compounds of each example were administrated intragastrically according to the Tmax thereof in the brain in mice pharmacokinetic test as follows:
1) Model group (0.5% CMC-Na+1% Tween 80 solution, p.o., 10 mL/kg);
2) Compounds of Example 2, Example 5, Example 7, Example 18, Example 23, Example 26 and Example 50 (10 mg/kg, p.o., 10 mL/kg).
When being administrated, the compounds of each example were suspended in 0.5% CMC-Na-1% Tween 80 solution to the desired concentration.
0.5-1 hour after administration, ICR mice were placed in a forced swimming device (transparent glass drum (water depth 18 cm, water temperature 25-26° C.), one mouse per tank) and forced to swim for 6 minutes. The forced swimming device recorded the floating time of the ICR mice during the entire 6 minutes, and the data of the latter four minutes were used for data analysis. The mice were taken out immediately after the swimming test, wiped dry and put back in their original cages.
Note: The criterion for determining the immobility time is that the mouse stops struggling in water and floats, and there are only slight limb movements to keep the head floating on the water.
3.4 Data Analysis Floating time percentage=100*floating time/240 s.

[1] = Pharmacokinetic assay in Balb/c mice (plasma and brain tissue); assay type: in vivo; details: male, Balb/c, mouse, in vivo, po, 5 mg/kg; for half-life: Half-life t1/2; for MRT: Mean residence time MRT; for Tmax: Peak time tmax; for AUC(0-t): Area under curve AUC0-t; for AUC(0-inf): Area under curve AUC0-∞; for Cmax: Plasma concentration Cmax
Method: Balb/c mice were used as test animals. The pharmacokinetic behavior in mice (plasma and brain tissue) of the compounds of Example 2, Example 5, Example 7, Example 12, Example 18, Example 23, Example 26, Example 38, Example 41, Example 50, Example 51 and Example 66 orally administrated at a dose of 5 mg/kg was studied.
Each group had 24 male Balb/c mice. After an overnight fast, Balb/c mice were administrated p.o. with the test compound at an administration dose of 5 mg/kg and an administration volume of 10 mL/kg.
0.2 ml of blood was taken from the heart before administration and at 0, 0.5, 1, 2, 4, 6, 8 and 24 hours after administration. The samples were stored in EDTA-K2 tubes, and centrifuged for 6 minutes at 4° C., 6000 rpm to separate the plasma. The plasma samples were stored at −80° C. The mice were sacrificed with CO2, and the whole brain tissue was taken out, weighed, placed in a 2 mL centrifuge tube and stored at −80° C.
1) 160 μL of acetonitrile was added to 40 μL of the plasma sample for precipitation, and then the mixture was centrifuged for 5-20 minutes at 3500×g.
2) 90 μL of acetonitrile containing the internal standard (100 ng/mL) was added to 30 μL of the plasma and brain homogenate samples for precipitation, and then the mixture was centrifuged for 8 minutes at 13000 rpm.
3) 70 μL of the treated supernatant was taken and added to 70 μL of water, and mixed by vortex for 10 minutes. 20 μL of the mixture was taken to analyze the concentration of the test compound by LC/MS/MS. LC/MS/MS analysis instrument: AB Sciex API 4000 Qtrap.
2.6 Liquid Chromatography Analysis • Liquid chromatography condition: Shimadzu LC-20AD pump. • Chromatographic column: Agilent ZORBAX XDB-C18 (50×2.1 mm, 3.5 μm); Mobile phase: Eluent A was 0.1% formic acid in water, and Eluent B was acetonitrile. • Flow rate: 0.4 mL/min • Elution time: 0-4.0 minutes the eluent is as follows:
The main parameters of pharmacokinetics were calculated by WinNonlin 6.1.

GABA-A receptor = assay: 35S-TBPS binding assay on rat cerebral cortex cell membrane; parameters: species or system Sprague-Dawley rat; details: 2 nM 35S-TBPS, GABA added, read-out: 35S-TBPS bindng test, IC50 on inhibiting the TBPS binding activity
Method in brief: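 Male Sprague-Dawley rat cortical membranes in PBS were preincubated 5 min at 25 °C with compound (8-point 3-fold series […], 1% DMSO), then with GABA ([…]). 2 nM 35S-TBPS was added for 20 h at 4 °C, followed by GF/C filtration and scintillation counting. % inhibition was normalised to DMSO and 10 μM reference controls, with IC50 from a 4-parameter fit.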

Structure (SMILES)	immobility time during the latter four minutes compared with that of the model group (ICR mice; 10 mg/kg p.o.)	Mean (immobility, %) (ICR mice)	Mean (immobility, s) (ICR mice)	Half-life t1/2 [1]	Mean residence time MRT [1]	half-life [1]	MRT [1]	Tmax [1]	IC50 (GABA-A receptor)	Area under curve AUC0-t [1]	Area under curve AUC0-∞ [1]	Plasma concentration Cmax [1]	AUC(0-t) [1]	AUC(0-inf) [1]	Cmax [1]
C[C@@]1(O)CC[C@@]2(F)[C@H](CC[C@H]3[C@@H]4CC[C@H](C(=O)Cn5nc(C#N)cc5C#N)[C@@]4(C)CC[C@@H]32)C1 [Example 50, 1-(2-((3R,5R,8S,9S,10R,13S,14S,17S)-10-Fluoro-3-hydroxy-3,13-dimethylhexadecahydro-1H-cyclopenta[a]phenanthren-17-yl)-2-oxoethyl)-1H-pyrazole-3,5-dicarbonitrile]	very significantly different	42.11%	101.07 s	1.10 h	2.48 h	1.11 h	2.36 h	1 h	12.5 nM						
C[C@@]1(O)CC[C@@]2(F)[C@H](CC[C@H]3[C@@H]4CC[C@H](C(=O)Cn5nc6ccc(F)cc6n5)[C@@]4(C)CC[C@@H]32)C1 [Example 18, 2-(5-Fluoro-2H-benzo[d][1,2,3]triazol-2-yl)-1-((3R,5R,8S,9S,10R,13S,14S,17S)-10-fluoro-3-hydroxy-3,13-dimethylhexadecahydro-1H-cyclopenta[a]phenanthren-17-yl)ethan-1-one]		61.19%	146.86 s	4.7 h	6.1 h	4.2 h	5.5 h	1 h	10 nM	2141.1 ng·h/mL	2186.8 ng·h/mL	281.7 ng/mL	1520 ng·h/mL	1540 ng·h/mL	236 ng/mL
C[C@@]1(O)CC[C@]2(F)C3CC[C@]4(C)[C@@H](C(=O)CNc5ccc(F)cc5F)CC[C@H]4[C@@H]3CC[C@@H]2C1 (stereo partly drawn) [Example 26, 2-((2,4-Difluorophenyl)amino)-1-((3R,5R,8S,10R,13S,14S,17S)-10-fluoro-3-hydroxy-3,13-dimethylhexadecahydro-1H-cyclopenta[a]phenanthren-17-yl)ethan-1-one]		53.46%	128.30 s	2.06 h	3.84 h	2.57 h	4.08 h	0.5 h	10.5 nM	722.9 ng·h/mL	828.4 ng·h/mL	172.3 ng/mL	767 ng·h/mL	772 ng·h/mL	232 ng/mL
